Among the data in US8586747B2, “3,3-dimethyl tetrahydroquinoline derivatives” (Hoffmann-La Roche Inc., priority 2010, dated 2013) are E30 values, retold here.

In the assay the test system is AMP-activated protein kinase (AMPK). Nature of the assay: ADP Quest assay for AMPK activators. As to conditions: fold of AMPK activation to phosphorylate SAMS peptide without and with an activator at the concentration of 30 µM. Details: key: fold AMPK activation with vs without activator at 30 µM. The format is biochemical. The gist of the method:
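AMPK phosphorylation of SAMS peptide with ATP monitored kinetically at room temperature by ADP Quest fluorescence (ex 530/em 590 nm), reaction started with enzyme. Compounds tested […] in 2-fold dilutions, AMP as reference. E30 is fold activation at 30 µM activator versus none.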
Regarding `CC1(C)Cc2cc(C(=O)NS(C)(=O)=O)ccc2NC1c1cc(Cl)cc(N2CCOCC2)c1` (stereo not drawn) [Example 57, N-[2-(3-Chloro-5-morpholin-4-yl-phenyl)-3,3-dimethyl-1,2,3,4-tetrahydro-quinoline-6-carbonyl]-methanesulfonamide], the E30 worked out at 1.25.

The compound `CC1(C)Cc2cc(C(=O)O)ccc2NC1c1ccc(F)c(NC(=O)c2ccccn2)c1` (stereo not drawn) [Example 180, 2-(4-Fluoro-3-(picolinamido)-phenyl)-3,3-dimethyl-1,2,3,4-tetrahydroquinoline-6-carboxylic acid] had an E30 of 1.32.

As for `CC1(C)Cc2cc(Cl)cc(C(=O)NS(C)(=O)=O)c2NC1c1cccc(N2CCN(c3ccc(Cl)cc3)CC2)c1` (stereo not drawn) [Example 93, N-(6-Chloro-2-{3-[4-(4-chloro-phenyl)-piperazin-1-yl]-phenyl}-3,3-dimethyl-1,2,3,4-tetrahydro-quinoline-8-carbonyl)-methanesulfonamide], the E30 is reported as 1.32.

`CC1(C)Cc2cc(C(=O)O)ccc2NC1c1cccc(NC(=O)c2cnccn2)c1` (stereo not drawn) [Example 5, 3,3-Dimethyl-2-{3-[(pyrazine-2-carbonyl)-amino]-phenyl}-1,2,3,4-tetrahydro-quinoline-6-carboxylic acid]: the E30 is 1.32.

`CC(C)(C)OC(=O)N1CC(NC(=O)c2cccc(C3Nc4ccc(C(=O)O)cc4CC3(C)C)c2)C1` (stereo not drawn) [Example 207, 2-(3-(1-(Tert-butoxycarbonyl)azetidin-3-ylcarbamoyl)phenyl)-3,3-dimethyl-1,2,3,4-tetrahydroquinoline-6-carboxylic acid] had an E30 of 1.32.

As to `CC(=O)Nc1cccc(C2Nc3ccc(C(=O)O)cc3CC2(C)C)c1` (stereo not drawn) [Example 204, 2-(3-Acetamidophenyl)-3,3-dimethyl-1,2,3,4-tetrahydroquinoline-6-carboxylic acid], the E30 came out at 1.4.

In the case of `CC1(C)Cc2cc(C(=O)O)ccc2NC1c1ccccc1NC(=O)C1CCC1` (stereo not drawn) [Example 216, 2-(2-(Cyclobutanecarboxamido)phenyl)-3,3-dimethyl-1,2,3,4-tetrahydroquinoline-6-carboxylic acid], the E30 is recorded as 1.36.

Compound `CC1(C)Cc2cc(C(=O)NS(=O)(=O)C3CC3)ccc2NC1c1ccc(N2CCOCC2)cc1` (stereo not drawn) [Example 73, Cyclopropanesulfonic acid [3,3-dimethyl-2-(4-morpholin-4-yl-phenyl)-1,2,3,4-tetrahydro-quinoline-6-carbonyl]-amide] came in with an E30 of 1.21.

`CC(C)NC(=O)c1ccc(-c2cccc(C3Nc4ccc(C(=O)O)cc4CC3(C)C)c2)cc1` (stereo not drawn) [Example 159, 2-(4′-Isopropylcarbamoyl-biphenyl-3-yl)-3,3-dimethyl-1,2,3,4-tetrahydro-quinoline-6-carboxylic acid] showed an E30 of 1.31.

On to `CC1(C)Cc2cc(C(=O)O)ccc2NC1c1ccccc1NS(=O)(=O)c1ccccc1F` (stereo not drawn) [Example 219, 2-(2-(2-Fluorophenylsulfonamido)phenyl)-3,3-dimethyl-1,2,3,4-tetrahydroquinoline-6-carboxylic acid], for which the E30 is 2.57.

Turning to `CN(C)C(=O)C(C)(C)Nc1cccc(C2Nc3ccc(C(=O)O)cc3CC2(C)C)c1` (stereo not drawn) [Example 40, 2-[3-(1-Dimethylcarbamoyl-1-methyl-ethylamino)-phenyl]-3,3-dimethyl-1,2,3,4-tetrahydro-quinoline-6-carboxylic acid], the E30 is reported as 1.35.

`CCN(CC)C(=O)Nc1cccc(C2Nc3ccc(C(=O)O)cc3CC2(C)C)c1` (stereo not drawn) [Example 36, 2-[3-(3,3-Diethyl-ureido)-phenyl}-3,3-dimethyl-1,2,3,4-tetrahydro-quinoline-6-carboxylic acid] registered an E30 of 1.37.

In the case of `CC1(C)Cc2cc(C(=O)NS(=O)(=O)C3CC3)ccc2NC1c1cc(F)cc(C2CCCCC2)c1` (stereo not drawn) [Example 70, Cyclopropanesulfonic acid [2-(3-cyclohexyl-5-fluoro-phenyl)-3,3-dimethyl-1,2,3,4-tetrahydro-quinoline-6-carbonyl]-amide], the E30 stood at 1.23.

In the case of `CC(C)(C)NC(=O)c1ccc(-c2cccc(C3Nc4ccc(C(=O)NS(C)(=O)=O)cc4CC3(C)C)c2)cc1` (stereo not drawn) [Example 160, 3′-(6-Methanesulfonylaminocarbonyl-3,3-dimethyl-1,2,3,4-tetrahydro-quinolin-2-yl)-biphenyl-4-carboxylic acid tert-butylamide], the E30 amounted to 1.23.

In turn, `CNS(=O)(=O)c1cccc(C2Nc3ccc(C(=O)O)cc3CC2(C)C)c1` (stereo not drawn) [Example 228, 3,3-Dimethyl-2-(3-(N-methylsulfamoyl)phenyl)-1,2,3,4-tetrahydroquinoline-6-carboxylic acid] gave an E30 of 1.38.

In turn, `Cc1ccc(S(=O)(=O)Nc2ccc(C3Nc4ccc(C(=O)O)cc4CC3(C)C)cc2)cc1` (stereo not drawn) [Example 183, 3,3-Dimethyl-2-(4-(4-methylphenylsulfonamido)phenyl)-1,2,3,4-tetrahydroquinoline-6-carboxylic acid] gave an E30 of 1.25.

With `CC(C)(C)NC(=O)c1ccc(-c2cccc(C3Nc4ccc(C(=O)O)cc4CC3(C)C)c2)cc1` (stereo not drawn) [Example 162, 2-(4′-tert-Butylcarbamoyl-biphenyl-3-yl)-3,3-dimethyl-1,2,3,4-tetrahydro-quinoline-6-carboxylic acid], the E30 was determined as 1.2.

The compound `CC(C)(Nc1cccc(C2Nc3c(cc(Cl)cc3C(=O)O)CC2(C)C)c1)C(=O)O` (stereo not drawn) [Example 80, 2-[3-(1-Carboxy-1-methyl-ethylamino)-phenyl]-6-chloro-3,3-dimethyl-1,2,3,4-tetrahydro-quinoline-8-carboxylic acid] had an E30 of 1.72.

For `Cc1ccc(N2CCN(c3cccc(C4Nc5ccc(C(=O)NS(=O)(=O)C6CC6)cc5CC4(C)C)c3)CC2)c(C)c1` (stereo not drawn) [Example 91, Cyclopropanesulfonic acid (2-{3-[4-(2,4-dimethyl-phenyl)-piperazin-1-yl]-phenyl}-3,3-dimethyl-1,2,3,4-tetrahydro-quinoline-6-carbonyl)-amide], the E30 stood at 1.31.

In the case of `CN1CCN(c2cccc(C3Nc4c(cc(Cl)cc4C(=O)NS(=O)(=O)C4CC4)CC3(C)C)c2)CC1` (stereo not drawn) [Example 139, Cyclopropanesulfonic acid {6-chloro-3,3-dimethyl-2-[3-(4-methyl-piperazin-1-yl)-phenyl]-1,2,3,4-tetrahydro-quinoline-8-carbonyl}-amide], the E30 turned out to be 1.38.

In the case of `CC(C)(Nc1cccc(C2Nc3ccc(C(F)(F)F)cc3CC2(C)C)c1)C(=O)O` (stereo not drawn) [Example 45, 2-[3-(3,3-Dimethyl-6-trifluoromethyl-1,2,3,4-tetrahydro-quinolin-2-yl)-phenylamino]-2-methyl-propionic acid], the E30 is 2.41.

For the compound `CC1(C)Cc2cc(C(=O)O)ccc2NC1c1cccc(C(N)=O)c1` (stereo not drawn) [Example 200, 2-(3-Carbamoylphenyl)-3,3-dimethyl-1,2,3,4-tetrahydroquinoline-6-carboxylic acid], the E30 is listed as 1.58.

Take `CC1(C)Cc2cc(C(=O)O)ccc2NC1c1cccc(N2CCNC2=O)c1` (stereo not drawn) [Example 17, 3,3-Dimethyl-2-[3-(2-oxo-imidazolidin-1-yl)-phenyl]-1,2,3,4-tetrahydro-quinoline-6-carboxylic acid]: the E30 worked out at 1.45.

Consider `CC(C)(Nc1cccc(C2Nc3ccc(S(C)(=O)=O)cc3CC2(C)C)c1)C(=O)O` (stereo not drawn) [Example 48, 2-[3-(6-Methanesulfonyl-3,3-dimethyl-1,2,3,4-tetrahydro-quinolin-2-yl)-phenylamino]-2-methyl-propionic acid], for which the E30 was determined as 2.62.
